# Patent US7649018B2, “Mono- and di-phosphates of 3-(3-fluoro-4-hydroxy-phenyl)-7-hydroxy-naphthalene-1-carbonitrile” (Wyeth LLC, priority 2007, dated 2010)
# Assay: Stability of intravenous stock solution
# Assay type: physicochemical
# Settings: stock solution 10 mg/mL in phosphate buffered saline adjusted to pH about 7.4 with NaOH; at 40 C
# Protocol: Preparation Procedures: An intravenous formulation will be made as a stock solution (10 mg/mL) one day prior to the start of dosing consisting of phosphate buffered saline adjusted to pH about 7.4 with NaOH. The dosing formulations will be prepared on the day of dosing by diluting the appropriate amount of the stock solution with D5W to obtain concentrations of 3.14 mg/mL of Compound 3 and then will be sterile filtered using a 0.20 micron filter about few hours prior to the start of dosing. The test formulation was stored at approximately 4° C. protected from light. The vehicle used for IV introduction was phosphate buffered saline consisting of 0.0144% (w/v) of KH2PO4, 0.90% (w/v) of NaCL, 0.0795% (w/v) of Na2HPO4, 0.325% of NaOH (1N) and […] sterile water for injection with the resulting pH of approximately 7.4. The stock solution (10 mg/mL) is stable for 7 days at 40 C.
structure (smiles),measurement,value
N#Cc1cc(-c2ccc(OP(=O)(O)O)c(F)c2)cc2ccc(OP(=O)(O)O)cc12 [Compound 3],Time over which stock solution is stable,7 days
